{"source": "patent US11628186B2", "about": "“Method and composition for the reduction of viral replication, duration and spread of the COVID-19 and the flu” (priority 2017, dated 2023)", "key": {"[1]": {"system": "patients with sinus & lung diseases including IPF and COPD", "assay": "20 mM sodium pyruvate nasal sprays with individual or combined ions (Table X)", "type": "in vivo, human", "excerpt": "This patent combined dozens of ingredients, including the use of enzyme, growth factors, sugars, nucleotide and vitamins, amino acids and sodium pyruvate, other nutrients and calcium chloride, magnesium chloride and calcium phosphate other ingredients to stimulate the growth of cartilage and collagen for knees and joints."}, "[2]": {"system": "patients with hypoxemia with and without lung diseases", "assay": "Comparison of 5 ml of 5 mM sodium pyruvate saline formulas (Table III)", "type": "in vivo, human", "conditions": "5 ml of 5 mM formula"}, "[3]": {"system": "patients with various cancers and chronic Hypoxemia", "assay": "Cancer trial pilot study", "type": "in vivo, human", "conditions": "in saline, without calcium, phosphate and magnesium", "description": "In eleven patients with various cancers and chronic Hypoxemia, five with lung cancer, including three with non-small cell lung cancer and six with various other cancers, […], which increased SaO2 levels in these patients to enhance the effect of the chemotherapy or radiation, and increased the synthesis of lung surfactants in lung alveoli cells to protect normal cells and help reduce hypoxia in cancer cells. These patients inhaled the formula one to two hours before they were treated with cancer drugs or radiation, given by current standard methods, and continued to inhale the surfactant enhancer formula twice a day for the eight weeks following the chemo therapy treatment. Because these patients are older, they often lack good nutritional eating habits, which effects their immune system. Thus, the patients were also given a proprietary diet high in a unique blend of antioxidants, and nutrients, that they consumed every day before and after chemo or radiation. Good nutrition is always a plus when patients undergo chemo or radiation as sited in numerous published articles. The diet specifically designed for patients with cancer and hypoxemia included calcium pyruvate, dicalcium phosphate and magnesium in their components. […]"}, "[4]": {"system": "subjects diagnosed with Severe COPD requiring supplemental oxygen", "assay": "SaO2 pilot study, single inhalation dose, blinded cross-over", "type": "in vivo, human", "description": "A total of five (5) subjects diagnosed with Severe COPD (chronic bronchitis or emphysema) and requiring supplemental oxygen at rest were enrolled in this study at the University of Connecticut. Each subject received a single inhalation dose of either 0.5 mM sodium pyruvate, 5.0 mM sodium pyruvate or 0.9% sodium chloride at each Study Visit. The dose was administered in a blinded cross-over manner at 1 week intervals; such that all subjects received each study compound. Safety and therapeutic efficacy were evaluated by the following measurements: spirometry, expired breath NO level, SaO2, vital signs, and follow-up telephone interviews.\nThe study was conducted in four visits: a Screening Visit and Study Visits 1-3. The effect of the inhalation of a single dose of sodium pyruvate (0.5 mM and 5.0 mM) or placebo (0.9% sodium chloride) was studied in a double-blind protocol. The primary efficacy outcome objective was the SaO2 levels for all subjects. In addition, COPD subjects were evaluated by lung function (FEV1 and PEF) and expired breath NO levels obtained just prior to and then at 60 minutes and at 3 hours in the second study, following the administration of the particular sodium pyruvate dose."}, "[5]": {"system": "Asthmatic and COPD patients", "assay": "Phase I/II clinical trials of sodium pyruvate in saline by inhalation", "type": "in vivo, human"}, "[6]": {"system": "patients with sinus & lung diseases including IPF and COPD", "assay": "Salts of pyruvate as 20 mM nasal sprays (Table IX)", "excerpt": "They never tested the individual salts for their ability to reduce inflammation or increase lung functions."}, "[7]": {"conditions": "20 mM sodium pyruvate nasal spray in saline with the listed ions"}, "[8]": {"conditions": "5 ml of the 0.5 mM solution in saline"}, "[9]": {"conditions": "20 mM (0.22%) nasal spray in 0.9% sodium chloride"}}, "data": [{"smiles": "CC(=O)C(=O)[O-].[Na+]", "note": "[Sodium, sodium pyruvate]", "values": [{"measurement": "Increased in FEV-1%", "setting": "[1]; [7]", "value": 12.0, "unit": "%"}, {"measurement": "Irritation", "setting": "[1]; [7]", "value": "None"}, {"measurement": "Percentage Increase in SaO2 over baseline", "setting": "[1]; [7]", "value": 2, "unit": "%"}, {"measurement": "Percentage increase of Nitric Oxide over baseline", "setting": "[1]; [7]", "value": 20.0, "unit": "%"}, {"measurement": "Relief of congestion, coughing and lung tightness", "setting": "[1]; [7]", "value": 6}, {"measurement": "Overall Rating 1-10", "setting": "[1]; 1 most negative, 10 best", "value": 7}, {"measurement": "Percentage Increase in FEV-1 over baseline", "setting": "[2]; inhaled", "value": 4.0, "unit": "%"}, {"measurement": "Percentage Increase in SaO2 over baseline", "setting": "[2]; inhaled", "value": 0, "unit": "%"}, {"measurement": "Percentage increase of Nitric Oxide over baseline", "setting": "[2]; inhaled", "value": 18.0, "unit": "%^"}, {"measurement": "Relief of Congestion and lung tightness 1-10", "setting": "[2]; inhaled", "value": 5}, {"measurement": "Relief of coughing percentage decrease in four hours", "setting": "[2]; inhaled", "value": 15, "unit": "%"}, {"measurement": "Overall Rating 1-10", "setting": "[2]; 1 most negative, 10 best", "value": 7}, {"measurement": "raises nitric oxide", "setting": "[3]", "value": 19, "unit": "%"}, {"measurement": "Adverse Events", "setting": "[4]; 0.5 mM and 5.0 mM single dose", "value": "no Adverse Events"}, {"measurement": "Nitric oxide levels increased", "setting": "[4]; 5 mM inhaled solution", "value": 19, "unit": "%"}, {"measurement": "change in the FEV1 or SaO2 compared to pre inhalation values", "setting": "[4]; single inhalation of 0.5 mM or 5.0 mM in saline", "value": "No significant change"}, {"measurement": "increasing FEV1 values", "setting": "[5]; [8]", "value": "over 12%"}, {"measurement": "reducing nitric oxide", "setting": "[5]; [8]", "value": 19.2, "unit": "%"}, {"measurement": "FEV1 values", "setting": "[5]; higher concentrations 1.5 mM or 5.0 mM in saline", "value": "did not increase FEV1 values"}, {"measurement": "increase nitric oxide levels", "setting": "[5]; solutions of 1.5 to 5 mM", "value": 19, "unit": "%"}, {"measurement": "Increased in FEV-1%", "setting": "[6]; [9]", "value": 12.0, "unit": "%"}, {"measurement": "Irritation", "setting": "[6]; [9]", "value": "none"}, {"measurement": "Percentage Increase in SaO2 over baseline", "setting": "[6]; [9]", "value": 2, "unit": "%"}, {"measurement": "Percentage increase of Nitric Oxide over baseline", "setting": "[6]; [9]", "value": 19.0, "unit": "%"}, {"measurement": "Relief of congestion, coughing and lung tightness", "setting": "[6]; [9]", "value": 6}, {"measurement": "Overall Rating 1-10", "setting": "[6]; 20 mM (0.22%) nasal spray, 1 most negative, 10 best", "value": 7}]}]}
